Laboratory results as given in patent EP0314302A2, “Herbicidal o-carbomethoxy-sulfonylureas” (E.I. DU PONT DE NEMOURS AND COMPANY, priority 1987, dated 1989).

Assays:
[1] = system: Lalang; assay: Test 4 plantation crop weeds, postemergence; format: in vivo, Imparata cylindrica; conditions: Table 8, scale 0-100
Excerpt: The object of this test was to evaluate the efficacy of the compound of this invention on weeds that infest some plantation crops at different growth stages of the weeds. Asystasia intrusa, Mikania cordata, goldenrod Solidago spp, Boston fern Nephrolepis exalata, and lalang Imparata cylindrica were planted in 15-cm plastic pots. Plants were sprayed postemergence with Compound I in a non-phytotoxic solvent. The Asystasia plants ranged in growth from 4 leaves to 9 leaves and very branched, Mikania had 6 leaves to vining, the goldenrod was branching and the Boston fern was growing vigorously. The degree of weed control was visually rated 20 to 24 days after treatment (DAT). Control ratings are based on the scale of 0 to 100 where 0 = no effect, 20 = minimal control and 100 = complete control. Variations in the results of the tests could be due to the fact that the tests were run at different times of the year or due to the stage of growth of the weeds.

[2] = system: Large Crabgrass; assay: Test 5 sugarcane injury and weed control, postemergence; format: in vivo, Digitaria sanguinalis; conditions: scale 0-100
Method: (§1) Sugarcane (Saccharum spp.) cuttings which had been pre-sprouted were planted in 15-cm plastic pots. Narrowleaf panicum (Panicum maximum), large crabgrass (Digitaria sanguinalis), guineagrass (P. maximum) and itchgrass (Rottboellia exaltata) were seeded in individual 15-cm plastic pots.
(§2) The pots were treated postemergence when the plants had 3 to 4 leaves with 2 to 3 tillers with Compound I formulated in a non-phytotoxic carrier made up of acetone-humectant-water-surfactant (22:1:1:0.05 v/v). The degree of crop injury and weed control was visually rated 27 days after treatment (DAT). Plant injury ratings are based on the scale of 0 to 100 where 0 = no effect, 20 = minimal injury and 100 = complete control.

[3] = system: Guinea Grass; assay: as above; format: in vivo, P. maximum; conditions: scale 0-100
Method: as §1, §2

[4] = system: Groundsel; assay: Test 7 postemergence; format: in vivo, Senecio spp; conditions: scale 0-100
Method: Individual 11.4-cm plastic pots filled with planting medium were seeded with rape, wild radish (Raphanus raphanistruna). tansy mustard (Descurainia pinnata), ball mustard (Neslia paniculata), black mustard (Brassica nigra), yellow mustard, brown mustard, lentils, safflower, flax, sunflower, peanut, vetch, alfalfa, field bean, pea, violet (Viola spp), Kochia (Kochia spp), Russian thistle (Salsola spp), Matricaria spp, groundsel (Senecio spp), shepherdspurse (Capsella bursa-pastoris), nightshade (Solanum spp), sowthistle (Sonchus spp), sugar beet, wheat, "Bonanza" barley and "Morex" barley, Kentucky bluegrass (Poa pratensis), red clover (Trifolium pratense), dandelion (Taraxacum spp) and buckhorn plantain (Plantago lanceolata).
Plants were treated postemergence with the compound formulated with a non-phytotoxic carrier. Plants were visually rated 18 days after treatment (DAT). Response ratings were based on the scale of 0 to 100 where 0 = no effect, 20 = minimal injury and 100 = complete control.

[5] = system: Sandbur; assay: Test 9 postemergence; format: in vivo, Cenchrus echinatus; conditions: scale 0-100
Method: Plastic windowsill pots containing planting medium were seeded with bahiagrass, bindweed (Convolvulus spp), guinea grass (Panicum maximum), large crabgrass (Digitaria sanguinalis) and pigweed (Amaranthus spp). Individual 15-cm plastic pots contained sandbur (Cenchrus echinatus), Mikania cordata, Boston fern (Nephrolepis exalata), quackgrass (Agropyron repens), elephantgrass (Pennisetum purpureum) and sowthistle (Sonchus spp) plants.
Plants were treated postemergence with Compound I formulated in a non-phytotoxic solvent. Plants were visually rated 22 days after treatment (DAT). Injury and weed control ratings were based on the scale of 0 to 100 where 0 = no effect, 20 = minimal control and 100 = complete control.

[6] = system: Lalang; assay: Test 9 postemergence; format: in vivo; conditions: scale 0-100
[7] = system: Wild buckwheat; assay: Test 10 postemergence safety to crops and weed control; format: in vivo, Polygonum convolvulus; conditions: 16 g/ha, scale 0-100
Method: The object of these tests was to evaluate the compound of this invention for postemergence safety to crops and weed control. Seedling and budded Macedine grapes were grown in 11.4-cm pots. Flax, green foxtail (Setaria viridis), "Morex" barley, wild oats (Avena fatua), "Era" wheat, annual ryegrass (Lolium multiflorum), wild radish (Raphanus raphanistrum), rape, sunflower, chickweed (Stellaria media) and wild buckwheat (Polygonum convolvulus) were seeded in windowsill pots.
The plants were sprayed postemergence with Compound I in a non-phytotoxic solvent. Plants were visually rated 15 and 27 days after treatment (DAT). Injury and weed control ratings were based on the scale of 0 to 100 where 0 = no effect, 20 minimal control and 100 = complete control.

[8] = system: Citrus; assay: Test 11 citrus pots, preemergence to the weeds; format: in vivo; conditions: Preemergence 32 g/ha; 0.25% X-77 surfactant; scale 0-100
Method: (§3) Budded citrus seedlings were planted in 30-liter plastic pots which were also seeded with sandbur, guineagrass, narrowleaf panicum, common ragweed, yellow nutsedge, purple nutsedge and bindweed. Compound I was applied preemergence and postemergence to the weeds. Treatments were sprayed to simulate the trunk-to-trunk herbicide application method used in some citrus groves. The compound was also applied postemergence to weeds grown in windowsill flats. The flats were filled with planting medium and seeded with morningglory (Ipomoea spp.). purple nutsedge (Cyperus rotundus), pigweed (Amaranthus spp.), bindweed (Convolvulus spp.), narrowleaf panicum (Panicum maximum), common ragweed (Ambrosia artemisiifolia), sandbur (Cenchrus echinatus), itchgrass (Rottboellia exaltata), johnsongrass (Sorghum halepense), guineagrass (Panicum maximum), smooth crabgrass (Digitaria ischaemum), broadleaf signalgrass (Brachiaria platyphylla), bermudagrass (Cynodon dactylon), goosegrass (Eleusine indica), large crabgrass (Digitaria sanguinalis) and yellow nutsedge (Cyperus esculentus).
(§4) The compound was formulated and sprayed with 0.25% X-77 surfactant in water. Plants were visually rated 21 and 29 days after treatment and compared with appropriate controls. Injury ratings were based on the scale of 0 to 100, where 0 indicates no effect, 20 indicates minimum effect and 100 indicates complete control. […]

[9] = system: Bindweed; assay: Test 11 windowsill flats, postemergence; format: in vivo, Convolvulus spp.; conditions: Postemergence 32 g/ha, 0.25% X-77 surfactant, scale 0-100
Method: as §3, §4

[10] = system: Lantana; assay: Test 12 over-the-top application, postemergence; format: in vivo, Lantana camara; conditions: 26 days after treatment, scale 0-100
Excerpt: The object of this test was to evaluate the safety of sour lemon to the over-the-top application of Compound I and control of lantana (Lantana camara) and trumpetcreeper (Campsis radicans). Plants were sprayed postemergence with Compound I formulated in a non-phytotoxic solvent. Treated plants were visually rated 26 days after treatment and compared with appropriate controls. Injury ratings were based on the scale of 0 to 100, where 0 indicates no effect, 20 indicates minimal effect and 100 indicates complete control.

SMILES: COC(=O)c1cccnc1S(=O)(=O)NC(=O)Nc1nc(OC)cc(OC)n1 [Compound I, 2-[[(4,6-dimethoxypyrimidin-2-yl)aminocarbonyl]aminosulfonyl]-3-pyridinecarboxylic acid, methyl ester]
- Control Rating 22 DAT ([1]; 16 g/ha): 20
- Control Rating 22 DAT ([1]; 32 g/ha): 20
- Control Rating 22 DAT ([1]; 64 g/ha): 40
- Plant Injury Rating 27 DAT ([2]; 8 g/ha): 30
- Plant Injury Rating 27 DAT ([2]; 16 g/ha): 60
- Plant Injury Rating 27 DAT ([2]; 32 g/ha): 80
- Plant Injury Rating 27 DAT ([2]; 64 g/ha): 100
- Plant Injury Rating 27 DAT ([3]; 8 g/ha): 30
- Plant Injury Rating 27 DAT ([3]; 16 g/ha): 70
- Plant Injury Rating 27 DAT ([3]; 32 g/ha): 80
- Plant Injury Rating 27 DAT ([3]; 64 g/ha): 100
- Plant Injury Rating 18 DAT ([4]; 16 g/ha): 100
- Plant Injury Rating 18 DAT ([4]; 32 g/ha): 100
- Plant Injury Rating 22 DAT ([5]; 8 g/ha): 100
- Plant Injury Rating 22 DAT ([5]; 16 g/ha): 100
- Plant Injury Rating 22 DAT ([5]; 32 g/ha): 100
- Plant Injury Rating 22 DAT ([6]; 8 g/ha): 0
- Plant Injury Rating 22 DAT ([6]; 16 g/ha): 0
- Plant Injury Rating 22 DAT ([6]; 32 g/ha): 20
- Plant Injury Rating 15 DAT [7]: 100
- Injury ratings [8]: 0
- Injury ratings [9]: 100
- Injury ratings ([10]; 8 g/ha): 0
- Injury ratings ([10]; 16 g/ha): 10
- Injury ratings ([10]; 32 g/ha): 30
